For one experiment, the target named is T1, mSmoM2 (Mus musculus, UniProt P56726, W539L).
T1 construct: All mSmo mutants were made using Quickchange or PCR methods in the context of a previously described construct encoding full-length mouse Smo (UniProt P56726); expressed in transfected cells; host or cells: NIH 3T3 cells
The experiment in a line: Hh reporter assay in NIH 3T3 cells transfected with mSmoM2. The experiment is classed as cell-based. The conditions noted are these: 10 µM each, 12 hr. How it is done: (§1) For reporter assays in NIH 3T3 cells, a 10-cm plate of cells was transfected with 8 μg of a 4:1 wt/wt ratio of firefly luciferase reporter driven by an 8xGli-responsive promoter ([Sasaki et al., 1997]) and a Renilla luciferase reporter driven by a constitutive TK promoter (Promega, Madison, WI). The next day, transfected cells were seeded into a 96-well plate, grown to confluence, and treated overnight with drugs diluted in media containing 0.5% fetal bovine serum (FBS). For reporter assays in Smo^−/− cells, 25,000 cells per well were seeded in a 24-well plate 24 hr prior to transfection. The next day, after a media replacement step, each well was transfected with 1 ng Smo construct and 500 ng of the reporter mix described above, using Xtreme Gene HP (Roche, Mannheim, Germany). After overnight transfection, the media were once again changed to fresh media. Cells were grown to confluence and treated with drugs diluted in media with 0.5% FBS for 48 hr. Activity of both reporters was measured using the Dual-Luciferase Reporter kit (Promega) and read on a Synergy H1 Hybrid Multi-Mode Microplate Reader (BioTek, Winooski, VT). The Gli luciferase to Renilla luciferase ratio is reported as ‘Hedgehog reporter activity’. Each experiment, which included three technical replicates, was repeated at least three times.

The target in a further experiment is T2, mSmo D477H (Mus musculus, UniProt P56726, D477H).
T2 construct: All mSmo mutants were made using Quickchange or PCR methods in the context of a previously described construct encoding full-length mouse Smo (UniProt P56726); expressed in transfected cells; host or cells: Smo-/- mouse embryonic fibroblasts (transient)
T2 sequence (P56726 33-793 D477H): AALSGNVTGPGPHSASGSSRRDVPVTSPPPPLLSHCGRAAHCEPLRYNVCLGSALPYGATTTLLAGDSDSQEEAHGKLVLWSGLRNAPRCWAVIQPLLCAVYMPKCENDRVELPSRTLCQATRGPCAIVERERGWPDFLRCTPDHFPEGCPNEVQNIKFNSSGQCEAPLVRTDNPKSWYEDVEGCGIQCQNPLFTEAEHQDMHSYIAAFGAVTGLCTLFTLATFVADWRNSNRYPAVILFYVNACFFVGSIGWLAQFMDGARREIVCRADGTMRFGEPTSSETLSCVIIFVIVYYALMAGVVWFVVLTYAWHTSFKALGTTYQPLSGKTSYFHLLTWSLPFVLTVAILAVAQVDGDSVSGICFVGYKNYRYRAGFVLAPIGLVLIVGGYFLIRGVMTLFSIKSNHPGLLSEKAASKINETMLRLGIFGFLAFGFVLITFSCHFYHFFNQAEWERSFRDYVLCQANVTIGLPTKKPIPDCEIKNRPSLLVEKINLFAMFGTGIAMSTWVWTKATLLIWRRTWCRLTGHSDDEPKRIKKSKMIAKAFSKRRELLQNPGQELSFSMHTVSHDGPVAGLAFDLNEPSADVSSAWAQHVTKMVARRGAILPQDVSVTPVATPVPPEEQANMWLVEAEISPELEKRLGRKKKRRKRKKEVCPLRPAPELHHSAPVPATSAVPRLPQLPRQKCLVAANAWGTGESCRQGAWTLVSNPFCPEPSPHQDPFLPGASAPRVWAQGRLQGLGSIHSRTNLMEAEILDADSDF
The experiment in a line: Hh reporter assay in Smo−/− cells transfected with mSmo D477H. It is filed as cell-based. The conditions noted are these: Shh, 25 µM, 48 hr. As to the method:
as §1

The next experiment deals with T3, mSmo CRD-Fc (Mus musculus, UniProt P56726).
T3 construct: made in house; host or cells: 293F suspension cells (secreted)
T3 sequence (P56726 33-183): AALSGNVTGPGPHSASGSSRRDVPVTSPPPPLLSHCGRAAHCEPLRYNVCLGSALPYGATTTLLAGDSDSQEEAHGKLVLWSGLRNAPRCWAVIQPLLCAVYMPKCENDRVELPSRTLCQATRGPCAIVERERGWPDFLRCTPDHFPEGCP
The experiment in a line: Ligand affinity chromatography: mSmo CRD-Fc binding to 20(S)-OHC beads. The conditions noted are these: free compound added as competitor. How it is done: After binding was allowed to proceed for 12 hr at 4°C, the resin was washed and captured protein was eluted as described above. The presence of mSmo CRD-Fc was measured by an anti-human HRP-coupled antibody (1:20,000) or anti-human IR800-coupled antibody (1:10,000; for all quantitation, detected by LiCor Odyssey). The presence of zSmo ectodomain protein was measured by colloidal Coomassie staining (GelCode Blue, Pierce/Thermo Scientific). […]

Experiment [1] has as its system Hh reporter (8xGli-responsive promoter). Briefly: Luciferase-based Hh reporter assay. It is filed as cell-based, mouse. The conditions noted are these: in the absence of Shh. As to the method:
For reporter assays in NIH 3T3 cells, a 10-cm plate of cells was transfected with 8 μg of a 4:1 wt/wt ratio of firefly luciferase reporter driven by an 8xGli-responsive promoter ([Sasaki et al., 1997]) and a Renilla luciferase reporter driven by a constitutive TK promoter (Promega, Madison, WI). The next day, transfected cells were seeded into a 96-well plate, grown to confluence, and treated overnight with drugs diluted in media containing 0.5% fetal bovine serum (FBS). For reporter assays in Smo^−/− cells, 25,000 cells per well were seeded in a 24-well plate 24 hr prior to transfection. […] Activity of both reporters was measured using the Dual-Luciferase Reporter kit (Promega) and read on a Synergy H1 Hybrid Multi-Mode Microplate Reader (BioTek, Winooski, VT). […]
For Hh reporter assays, each point is reported as the mean ± standard deviation (SD) derived from triplicates. […] Relative luciferase activity was calculated by dividing Gli luciferase by Renilla luciferase luminescence. Fold-change in reporter activity was calculated by dividing each replicate by the mean reporter activity of the vehicle-treated control. Normalized (% of max) Hh reporter activity was calculated by setting the maximum value of a set to 100% and zero to 0% using the ‘normalize’ function of GraphPad Prism. […]

A further experiment concerns the target T4, full-length mSmo (Mus musculus, UniProt P56726).
T4 construct: expressed in transfected cells
The experiment in a line: Bodipy-cyclopamine binding to Smo-expressing cells by FACS.

For another experiment, the system named is Smo. The conditions noted are these: ref Wang et al., 2012; cited from earlier work.
Another experiment deals with T5, ΔCRD-YFP-mSmo (Mus musculus, UniProt P56726, DEL68-184).
T5 construct: All mSmo mutants were made using Quickchange or PCR methods in the context of a previously described construct encoding full-length mouse Smo (UniProt P56726); expressed in transfected cells
T5 sequence (P56726 with tags, fused parts or gaps DEL68-184): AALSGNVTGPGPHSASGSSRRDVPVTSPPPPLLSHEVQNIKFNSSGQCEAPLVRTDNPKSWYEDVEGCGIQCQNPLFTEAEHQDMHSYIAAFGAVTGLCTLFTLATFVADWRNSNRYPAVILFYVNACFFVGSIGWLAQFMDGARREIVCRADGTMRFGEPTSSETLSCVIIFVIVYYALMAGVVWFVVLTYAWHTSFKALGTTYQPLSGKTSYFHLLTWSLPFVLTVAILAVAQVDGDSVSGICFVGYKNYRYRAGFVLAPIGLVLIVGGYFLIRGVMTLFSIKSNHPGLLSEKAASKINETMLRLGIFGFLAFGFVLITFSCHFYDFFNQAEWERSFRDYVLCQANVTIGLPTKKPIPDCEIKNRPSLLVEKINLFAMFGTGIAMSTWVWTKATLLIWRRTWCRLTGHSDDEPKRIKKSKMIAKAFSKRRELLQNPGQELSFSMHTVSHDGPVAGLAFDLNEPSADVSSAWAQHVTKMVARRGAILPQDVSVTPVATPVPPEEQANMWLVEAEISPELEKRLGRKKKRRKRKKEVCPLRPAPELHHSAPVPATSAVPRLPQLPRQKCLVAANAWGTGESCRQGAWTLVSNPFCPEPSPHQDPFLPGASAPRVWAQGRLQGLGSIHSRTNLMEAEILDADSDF
The experiment in a line: Hh signaling by ΔCRD-YFP-mSmo in Smo−/− cells (immunoblot, Hh reporter). It is filed as cell-based. The conditions noted are these: SAG 25 nM, cyclopamine 5 μM, Hh reporter.

The test system of another experiment is Zebrafish embryos. The experiment in a line: Zebrafish embryo treatment: eng2a:GFP reporter and ptch2 in situ hybridization. It is filed as in vivo. The conditions noted are these: 30hpf embryos; 20(S)-OHC 50 µM, cyclopamine 40 µM. As to the method:
Adult fishes were maintained on a 14-hr light/10-hr dark cycle at 28°C in the AVA (Singapore) certified IMCB Zebrafish Facility. Zebrafish strain used was Tg(eng2a:eGFP)^i233 ([Maurya et al., 2011]).
The embryos of Tg(eng2a:eGFP)^i233 were dechorinated using pronase (Roche) at one cell stage. […] Control embryos were kept in water containing the same amount of ethanol, used as the vehicle for the drugs. Standard in situ hybridization (ISH) was performed with anti-Dig alkaline phosphatase and chromogenic substrate NBT/BCIP as previously described ([Oxtoby and Jowett, 1993]). ptch2 (formerly ptc1) RNA probe was prepared from template as previously described ([Concordet et al., 1996]).

Experiment [2] concerns Hh reporter (8xGli-responsive promoter). The conditions noted are these: ref Nachtergaele et al., 2012; cited from earlier work.
For experiment [3], the system named is endogenous mSmo in cilia of NIH 3T3 cells. The experiment in a line: Immunofluorescence of ciliary Smo accumulation. The conditions noted are these: NIH 3T3, 4 hr, presence of Shh. The experiment is classed as cell-based, mouse.
The test system is the same in experiment [4]. Also noted: method as in Rohatgi et al., 2009. The conditions noted are these: absence of Shh; ref Rohatgi et al., 2009; cited from earlier work.

T4 sequence (P56726 33-793): as the sequence (P56726 33-793 D477H) above, with H445D counted along it
T1 sequence (P56726 33-793 W539L): as the sequence (P56726 33-793 D477H) above, with H445D, W507L counted along it

As to `C#CCCC(=O)[C@H]1CC[C@H]2[C@@H]3CC=C4C[C@@H](O)CC[C@]4(C)[C@H]3CC[C@]12C` [20-keto-yne, (3β, 17β)-17-(1-oxopent-4-yn-1-yl)-androst-5-en-3-ol], the “signaling by mSmoM2” value at mSmoM2 is reported as “reduced signaling”. Besides, the “signaling by mSmo D477H” value on mSmo D477H was “reduced signaling”. For the same compound, the “inhibition of binding of mSmo CRD-Fc to 20(S)-OHC beads” value (“inhibition of binding of mSmo CRD-Fc” for short) at mSmo CRD-Fc is “blocked the binding”. In [1], the “activation of Hh signaling” value was “weak activators of signaling”. Moreover, at full-length mSmo, the “competition of bodipy-cyclopamine binding” value is listed as “did not affect the binding”.

For the compound `CCCC1O[C@@H]2C[C@H]3[C@@H]4CCC5=CC(=O)C=C[C@]5(C)[C@H]4[C@@H](O)C[C@]3(C)[C@]2(C(=O)CO)O1` (stereo partly drawn) [Budesonide], in the experiment on Smo, the “competition with cyclopamine for binding to Smo” value is given as “fail to compete with cyclopamine for binding to Smo”.

In the case of `CC(C)C(=O)OCC(=O)[C@@]12O[C@H](C3CCCCC3)O[C@@H]1C[C@H]1[C@@H]3CCC4=CC(=O)C=C[C@]4(C)[C@H]3[C@@H](O)C[C@@]12C` [Ciclesonide], the “competition with cyclopamine for binding to Smo” value with Smo is “fail to compete with cyclopamine for binding to Smo”.

In the case of `CC1=C2C[C@H]3[C@@H](CC=C4C[C@@H](O)CC[C@@]43C)[C@@H]2CC[C@]12O[C@@H]1C[C@H](C)CN[C@H]1[C@H]2C` [cyclopamine], the “inhibition of SAG activated ΔCRD-YFP-mSmo” value at ΔCRD-YFP-mSmo is recorded as “remained susceptible to inhibition by cyclopamine”. In addition, the “eng2a:GFP reporter expression” value with Zebrafish embryos is “suppressed expression of the reporter gene”. On mSmo CRD-Fc, the “inhibition of binding of mSmo CRD-Fc” value is on record as “blocked the interaction”. Besides, the “potency against Shh-activated Smo compared to 20(S)-OHC-activated Smo” value in experiment [2] was “much less potent”. Further, in experiment [3], the “Shh-induced Smo accumulation in cilia” value is “do not block Smo ciliary accumulation”. Also, the “Smo accumulation in cilia, compound alone” value in experiment [4] was “can drive Smo accumulation in cilia even in the absence of Shh”.

Turning to “(3β, 17β)-17-[(2R)-2-hydroxy-hex-4-yn-2-yl]-androst-5-en-3-ol [20(R)-yne]”, the “signaling by mSmoM2” value at mSmoM2 was “reduced signaling”. For the same compound, the “signaling by mSmo D477H” value on mSmo D477H was “reduced signaling”. Further, the “inhibition of binding of mSmo CRD-Fc” value at mSmo CRD-Fc is “blocked the binding”. Moreover, the “activation of Hh signaling” value in experiment [1] was “weak activators of signaling”. Further, on full-length mSmo, the “competition of bodipy-cyclopamine binding” value was “did not affect the binding”.

The record behind these values is publication PMC3809587, “Structure and function of the Smoothened extracellular domain in vertebrate Hedgehog signaling” (eLife, 2013).
